Bridge positions count the residues as written; N and C are the ends. Square brackets hold non-standard residues; d marks the D form. Peptide text beside a SMILES is read from it. S5 = C=CCCC[C@](C)(N)C(=O)O; Nle = CCCC[C@H](N)C(=O)O
Experiments:
B. cereus = type: cell-based, Bacillus cereus
Procedure: (§1) Antimicrobial Activity Assay:
(§2) The following microbroth dilution protocol was adapted to determine the minimum inhibitory concentration (MIC) of each peptide. First, Mueller-Hinton broth (MHB) was passed through an anion exchange column to remove polyanionic species and generate refined MHB. […] Briefly, bacterial cells was grown overnight in refined MHB at 37° C. and then diluted and allowed to grow again for several hours. Serial dilutions of peptide stocks in water (10 μl) were prepared using clear round-bottom polypropylene 96-well plates. Then 90 μl of bacteria in refined MHB was added to give a final inoculum of 5×10^5 CFU/ml. The plates were then covered with porous tape to reduce evaporation, and incubated for 20-24 hours at 37° C. The MIC is the minimum peptide concentration at which no visible growth was observed.

P. aeruginosa = type: cell-based, Pseudomonas aeruginosa
Procedure: as §1, §2

E. coli = type: cell-based, Escherichia coli
Procedure: as §1, §2

S. aureus = type: cell-based, Staphylococcus aureus
Procedure: as §1, §2

human red blood cells = type: cell-based; details: red cells of human, 1 h, 25
Procedure: FIG. 5 is a series of line graphs depicting the hemolytic activity of magainin II and stapled analogues. Peptides were incubated with 1% (v/v) human red blood cells in phosphate-buffered solution for 1 hour at 37° C. and then the supernatant was isolated and the amount of hemoglobin released was measured at 540 nm. % hemolysis was calculated relative to an untreated control.
Hemolytic Activity Assay:
For the determination of hemolytic activity, human blood samples were centrifuged to isolate red blood cells (RBCs), which are then washed and suspended in phosphate-buffered saline to yield a 1% (v/v) suspension. The suspension was then added to serial dilutions of peptide stocks in water in clear round-bottom polypropylene 96-well plates and the plates were incubated for 1 hour at 37° C. After incubation, the plates were centrifuged and the supernatant was isolated to determine the amount of hemoglobin released using a spectrophotometer (570 nm), according to the equation: % Hemolysis=(Treated Absorbance−Untreated Control Absorbance)/(1% Triton-X100 Treated Absorbance−Untreated Control Absorbance). The minimum hemolytic concentration (MHC) is the peptide concentration at which there is less than 1% hemoglobin release.

| SMILES | MIC B. cereus (B. cereus) | MIC P. aeruginosa (P. aeruginosa) | MIC E. coli (E. coli) | MIC S. aureus (S. aureus) | % Hemolysis at 25 μg/ml (human red blood cells) |
| --- | --- | --- | --- | --- | --- |
| CCCC[C@H](NC(=O)[C@@H](NC(=O)[C@H](CCC(=O)O)NC(=O)CNC(=O)[C@@H](NC(=O)[C@H](Cc1ccccc1)NC(=O)[C@H](C)NC(=O)[C@H](CCCCN)NC(=O)CNC(=O)[C@]1(C)CCCC=CCCC[C@](C)(NC(=O)[C@H](Cc2c[nH]cn2)NC(=O)[C@H](CC(C)C)NC(=O)[C@H](Cc2ccccc2)NC(=O)[C@H](CCCCN)NC(=O)CNC(=O)[C@@H](NC(=O)CN)[C@@H](C)CC)C(=O)N[C@@H](C)C(=O)N[C@@H](CCCCN)C(=O)N[C@@H](CCCCN)C(=O)N1)C(C)C)[C@@H](C)CC)C(=O)N[C@@H](CC(N)=O)C(=O)N[C@@H](CO)C(N)=O [Mag(i + 4)7] (H-GIGKFLH[S5]AKK[S5]GKAFVGEI[Nle]NS-NH2; staple 8-12) | 6.2 mg/L | 6.2 mg/L | 3.1 mg/L | 6.2 mg/L | 62.5% |
| CCCC[C@H](NC(=O)[C@]1(C)CCCC=CCCC[C@](C)(NC(=O)[C@H](C)NC(=O)[C@H](CCCCN)NC(=O)[C@@H]2CCCN2C(=O)[C@H](Cc2ccccc2)NC(=O)[C@H](CCCCN)NC(=O)[C@H](CCCCN)NC(=O)[C@H](C)NC(=O)[C@H](CO)NC(=O)[C@H](Cc2c[nH]cn2)NC(=O)[C@H](CC(C)C)NC(=O)[C@H](Cc2ccccc2)NC(=O)[C@H](CCCCN)NC(=O)CNC(=O)[C@@H](NC(=O)CN)[C@@H](C)CC)C(=O)N[C@@H](C(C)C)C(=O)NCC(=O)N[C@@H](CCC(=O)O)C(=O)N1)C(=O)N[C@@H](CC(N)=O)C(=O)N[C@@H](CO)C(N)=O [Mag(i + 4)15(G13P), GIGKFLHSAKKFPKAXVGEXBNS] (H-GIGKFLHSAKKFPKA[S5]VGE[S5][Nle]NS-NH2; staple 16-20) | 25 mg/L | 25 mg/L | 3.1 mg/L | >50 mg/L | 2.0% |
| CCCC[C@H](NC(=O)[C@]1(C)CCCC=CCCC[C@](C)(NC(=O)[C@H](C)NC(=O)[C@H](CCCCN)NC(=O)CNC(=O)[C@H](Cc2ccccc2)NC(=O)[C@H](CCCCN)NC(=O)[C@H](CCCCN)NC(=O)[C@H](C)NC(=O)[C@H](CCCCN)NC(=O)[C@H](Cc2c[nH]cn2)NC(=O)[C@H](CC(C)C)NC(=O)[C@H](Cc2ccccc2)NC(=O)[C@H](CCCCN)NC(=O)CNC(=O)[C@@H](NC(=O)CN)[C@@H](C)CC)C(=O)N[C@@H](C(C)C)C(=O)NCC(=O)N[C@@H](CCC(=O)O)C(=O)N1)C(=O)N[C@@H](CC(N)=O)C(=O)N[C@@H](CO)C(N)=O [Mag(i + 4)15(S8K), GIGKFLHKAKKFGKAXVGEXBNS] (H-GIGKFLHKAKKFGKA[S5]VGE[S5][Nle]NS-NH2; staple 16-20) | 3.1 mg/L | 6.2 mg/L | 1.6 mg/L | 6.2 mg/L | 3.4% |
| CCCC[C@H](NC(=O)[C@]1(C)CCCC=CCCC[C@](C)(NC(=O)[C@H](C)NC(=O)[C@H](CCCCN)NC(=O)CNC(=O)[C@H](Cc2ccccc2)NC(=O)[C@H](CCCCN)NC(=O)[C@H](CCCCN)NC(=O)[C@H](C)NC(=O)[C@H](CO)NC(=O)[C@H](Cc2c[nH]cn2)NC(=O)[C@H](CC(C)C)NC(=O)[C@H](Cc2ccccc2)NC(=O)[C@H](CCCCN)NC(=O)CNC(=O)[C@@H](NC(=O)CN)[C@@H](C)CC)C(=O)N[C@@H](C(C)C)C(=O)N[C@@H](Cc2c[nH]cn2)C(=O)N[C@@H](CCC(=O)O)C(=O)N1)C(=O)N[C@@H](CC(N)=O)C(=O)N[C@@H](CO)C(N)=O [Mag(i + 4)15(G18H), GIGKFLHSAKKFGKAXVHEXBNS] (H-GIGKFLHSAKKFGKA[S5]VHE[S5][Nle]NS-NH2; staple 16-20) | 3.1 mg/L | 6.2 mg/L | 1.6 mg/L | 6.2 mg/L | 6.8% |
| CCCC[C@H](NC(=O)[C@]1(C)CCCC=CCCC[C@](C)(NC(=O)[C@H](C)NC(=O)[C@H](CCCCN)NC(=O)CNC(=O)[C@H](Cc2ccccc2)NC(=O)[C@H](CCCCN)NC(=O)[C@H](CCCCN)NC(=O)[C@H](C)NC(=O)[C@H](CO)NC(=O)[C@H](Cc2c[nH]cn2)NC(=O)[C@H](CC(C)C)NC(=O)[C@H](Cc2ccccc2)NC(=O)[C@H](CCCCN)NC(=O)CNC(=O)[C@@H](NC(=O)CN)[C@@H](C)CC)C(=O)N[C@@H](C(C)C)C(=O)NCC(=O)N[C@@H](CCC(=O)O)C(=O)N1)C(=O)N[C@@H](CC(N)=O)C(=O)N[C@@H](CCCCN)C(N)=O [Mag(i + 4)15(S23K), GIGKFLHSAKKFGKAXVGEXBNK] (H-GIGKFLHSAKKFGKA[S5]VGE[S5][Nle]NK-NH2; staple 16-20) | 6.2 mg/L | 3.1 mg/L | 1.6 mg/L | 50 mg/L | 5.0% |
| CCCC[C@H](NC(=O)[C@]1(C)CCCC=CCCC[C@](C)(NC(=O)[C@H](C)NC(=O)[C@H](CCCCN)NC(=O)CNC(=O)[C@H](Cc2ccccc2)NC(=O)[C@H](CCCCN)NC(=O)[C@H](CCCCN)NC(=O)[C@H](C)NC(=O)[C@H](CO)NC(=O)[C@H](Cc2c[nH]cn2)NC(=O)[C@H](CC(C)C)NC(=O)[C@H](CCCCN)NC(=O)[C@H](CCCCN)NC(=O)CNC(=O)[C@@H](NC(=O)CN)[C@@H](C)CC)C(=O)N[C@@H](C(C)C)C(=O)NCC(=O)N[C@@H](CCC(=O)O)C(=O)N1)C(=O)N[C@@H](CC(N)=O)C(=O)N[C@@H](CO)C(N)=O [Mag(i + 4)15(F5K), GIGKKLHSAKKFGRAXVGEXBNS] (H-GIGKKLHSAKKFGKA[S5]VGE[S5][Nle]NS-NH2; staple 16-20; N-terminus and C-terminus assumed) | >50 mg/L | 12.5 mg/L | 3.1 mg/L | >50 mg/L | 1.7% |
| CCCC[C@H](NC(=O)[C@]1(C)CCCC=CCCC[C@](C)(NC(=O)[C@H](C)NC(=O)[C@H](CCCCN)NC(=O)CNC(=O)[C@H](Cc2ccccc2)NC(=O)[C@H](CCCCN)NC(=O)[C@H](CCCCN)NC(=O)[C@H](CCCCN)NC(=O)[C@H](CO)NC(=O)[C@]2(C)CCCC=CCCC[C@](C)(NC(=O)[C@@H](NC(=O)CN)[C@@H](C)CC)C(=O)N[C@@H](CCCCN)C(=O)N[C@@H](Cc3ccccc3)C(=O)N[C@@H](CC(C)C)C(=O)N2)C(=O)N[C@@H](C(C)C)C(=O)NCC(=O)N[C@@H](CCC(=O)O)C(=O)N1)C(=O)N[C@@H](CC(N)=O)C(=O)N[C@@H](CO)C(N)=O [Mag(i + 4)2, 15(A9K), GIXKFLXSKKKFGKAXVGEXBNS] (H-GI[S5]KFL[S5]SKKKFGKA[S5]VGE[S5][Nle]NS-NH2; staple 3-7, 16-20) | 3.1 mg/L | 3.1 mg/L | 1.6 mg/L | 3.1 mg/L |  |
| CCCC[C@H](NC(=O)[C@@H](NC(=O)[C@H](CCC(=O)O)NC(=O)CNC(=O)[C@@H](NC(=O)[C@H](Cc1ccccc1)NC(=O)[C@H](C)NC(=O)[C@H](CCCCN)NC(=O)CNC(=O)[C@H](Cc1ccccc1)NC(=O)[C@]1(C)CCCC=CCCC[C@](C)(NC(=O)[C@H](CC(C)C)NC(=O)[C@H](Cc2ccccc2)NC(=O)[C@H](CCCCN)NC(=O)CNC(=O)[C@@H](NC(=O)CN)[C@@H](C)CC)C(=O)N[C@@H](CO)C(=O)N[C@@H](C)C(=O)N[C@@H](CCCCN)C(=O)N1)C(C)C)[C@@H](C)CC)C(=O)N[C@@H](CC(N)=O)C(=O)N[C@@H](CO)C(N)=O [Mag(i + 4)6, GIGKFLXSAKXFGKAFVGEIBNS] (H-GIGKFL[S5]SAK[S5]FGKAFVGEI[Nle]NS-NH2; staple 7-11) | 12.5 mg/L | 25 mg/L | 6.2 mg/L | 25 mg/L |  |
| CCCC[C@H](NC(=O)[C@@H](NC(=O)[C@H](CCC(=O)O)NC(=O)CNC(=O)[C@@H](NC(=O)[C@H](Cc1ccccc1)NC(=O)[C@H](C)NC(=O)[C@H](CCCCN)NC(=O)CNC(=O)[C@H](Cc1ccccc1)NC(=O)[C@H](CCCCN)NC(=O)[C@H](CCCCN)NC(=O)[C@H](C)NC(=O)[C@H](CO)NC(=O)[C@H](Cc1c[nH]cn1)NC(=O)[C@]1(C)CCCC=CCCC[C@](C)(NC(=O)CN)C(=O)NCC(=O)N[C@@H](CCCCN)C(=O)N[C@@H](Cc2ccccc2)C(=O)N1)C(C)C)[C@@H](C)CC)C(=O)N[C@@H](CC(N)=O)C(=O)N[C@@H](CO)C(N)=O [Mag(i + 4)1, GXGKFXHSAKKFGKAFVGEIBNS] (H-G[S5]GKF[S5]HSAKKFGKAFVGEI[Nle]NS-NH2; staple 2-6) | 25 mg/L | 12.5 mg/L | 3.1 mg/L | >50 mg/L |  |

Reference: patent US20200231638A1, “STABILIZED ANTI-MICROBIAL PEPTIDES” (priority 2015, published 2020)
